Experimental data published in PubChem BioAssay (NCI).
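Cells were grown in 96-well plates and exposed to each compound for 48 hours at five concentrations; endpoints were interpolated linearly between bracketing concentrations, or set to the highest concentration if not reached. TGI is the concentration that stops growth completely.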

Tests used:
Assay in all cases: NCI tumour cell line growth inhibition, 48 h
NCI-H226 lung = tested on: NCI-H226 lung
SN12C renal = tested on: SN12C renal
MDA-MB-435 = tested on: MDA-MB-435
SK-MEL-5 melanoma = tested on: SK-MEL-5 melanoma
SW-620 colon = tested on: SW-620 colon
HCT-15 colon = tested on: HCT-15 colon
SF-268 CNS = tested on: SF-268 CNS
SNB-19 CNS = tested on: SNB-19 CNS
EKVX NSCLC = tested on: EKVX NSCLC
BT-549 breast = tested on: BT-549 breast
U251 CNS = tested on: U251 CNS
HS 578T breast = tested on: HS 578T breast
OVCAR-8 ovarian = tested on: OVCAR-8 ovarian
HCT-116 colon = tested on: HCT-116 colon
CAKI-1 renal = tested on: CAKI-1 renal
TK-10 renal = tested on: TK-10 renal
RPMI-8226 leukemia = tested on: RPMI-8226 leukemia
A498 renal = tested on: A498 renal
DU-145 prostate = tested on: DU-145 prostate
MDA-MB-231 breast = tested on: MDA-MB-231 breast

Compound | TGI (NCI-H226 lung) [µM] | TGI (SN12C renal) [µM] | TGI (MDA-MB-435) [µM] | TGI (SK-MEL-5 melanoma) [µM] | TGI (SW-620 colon) [µM] | TGI (HCT-15 colon) [µM] | TGI (SF-268 CNS) [µM] | TGI (SNB-19 CNS) [µM] | TGI (EKVX NSCLC) [µM] | TGI (BT-549 breast) [µM] | TGI (U251 CNS) [µM] | TGI (HS 578T breast) [µM] | TGI (OVCAR-8 ovarian) [µM] | TGI (HCT-116 colon) [µM] | TGI (CAKI-1 renal) [µM] | TGI (TK-10 renal) [µM] | TGI (RPMI-8226 leukemia) [µM] | TGI (A498 renal) [µM] | TGI (DU-145 prostate) [µM] | TGI (MDA-MB-231 breast) [µM]
CC(C)(C)OC(=O)NC(Cc1ccc(O)cn1)C(=O)O (stereo not given) | > 100 | > 100 | > 100 | > 100 | > 100 | > 100 | > 100 | > 100 | > 100 | > 100 | > 100 | > 100 | > 100 | > 100 | > 100 | > 100 | > 100 | > 100 | > 100 | > 100
N#Cc1cc([N+](=O)[O-])ccc1NC(=O)/C(=N\NC(=O)c1ccncc1)C(c1cnc2ccc([N+](=O)[O-])cc2n1)[N+](=O)[O-] (stereo not given) | 7.58 | 3.71 | 2.59 | 2.14 | 5.5 | 5.22 | 11.6 | 8.16 | 25.1 | 3.55 | 6.63 | 6.23 | 9.83 | 7.33 | 17.9 | 28.3 | 41.7 | 17.7 | 11.8 | 5.36
COC(=O)C1=C(OC(=O)/C(=C/c2ccccc2)c2ccc(Cl)cc2)C(C(=O)OC)[C@@]2(O)[C@@H](C(=O)OC)[C@H](C)C[C@@H]1[C@@H]2C(=O)OC (stereo not given in full) | > 100 | > 100 | > 100 | > 100 | > 100 | > 100 | > 100 | > 100 | > 100 | > 100 | > 100 | > 100 | > 100 | > 100 | > 100 | > 100 | > 100 | > 100 | > 100 | > 100
Cc1occc1C(=S)Nc1ccc(Cl)c(/C=N/OC(C)(C)C)c1 | 32.4 | 31.8 | 31.7 | 33.4 | 36.9 | 31.2 | 54.8 | 40.6 | 43.3 | 32.2 | 28.5 | 51.6 | 38.8 | 27 | 41.1 | 49.8 | 47.8 | 40.2 | 48.7 | 42.3
COc1cc2cc(C(=O)Nc3cc4n(n3)-c3ccccc3C4)[nH]c2c(OC)c1OC | 3.95 | 25.6 | 5.28 | 5.23 | 19.1 | 9.61 | 15.1 | 27.6 | 11.5 | 3.57 | 22.7 | 16.4 | 3.78 | 9.65 | 6.3 | 9.27 | 3.14 | 50 | 14.3 | 19.3
COC(=O)c1ccccc1NC(=NC1CCCCCC1)NS(=O)(=O)c1ccc(C)cc1 | > 100 | > 100 | > 100 | > 100 | > 100 | > 100 | > 100 | > 100 | > 100 | > 100 | > 100 | > 100 | > 100 | > 100 | > 100 | > 100 | > 100 | > 100 | > 100 | > 100
COC(=O)C1=C(OC(=O)c2ccccc2)C(C(=O)OC)[C@@]2(O)[C@@H](C(=O)OC)[C@H](C)C[C@@H]1[C@@H]2C(=O)OC (stereo not given in full) | > 100 | > 100 | > 100 | > 100 | > 100 | > 100 | > 100 | > 100 | > 100 | 78.1 | > 100 | > 100 | > 100 | > 100 | > 100 | > 100 | > 100 | 94.5 | > 100 | > 100
NNC(=O)CCSc1ccccc1 | > 100 | > 100 | > 100 | > 100 | > 100 | > 100 | > 100 | > 100 | > 100 | > 100 | > 100 | > 100 | > 100 | > 100 | > 100 | > 100 | > 100 | > 100 | > 100 | > 100
CC1CC/C(=C\c2ccc(N(C)C)cc2)C2=C1C(c1ccc(N(C)C)cc1)NC(=S)N2 (stereo not given) | > 100 | > 100 | > 100 | > 100 | > 100 | > 100 | > 100 | > 100 | > 100 | > 100 | > 100 | > 100 | > 100 | > 100 | > 100 | > 100 | > 100 | > 100 | > 100 | > 100
